Data from the supplement of paper PMC11208160.

assay: recombinant barcode read abundance after kanamycin selection (control-corrected) (log10(CPM+1)); higher = more efficient recombination; sequences stand for … in AGTGCAGAGAAAATCGGCCAGTTTTCTCTGCCTGCAGTCCGCATGCCGT…AGATTTATGCAGCGGACTGCCTTTCTCCCAAAGTGATAAACCGGACAGTATCATGGACCGGTTTTCCCGGTAATCCGTATTTGCAAGGTTGGTTTCACT; site = the 11-nt target
Method in brief: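 Targets were screened in pooled form in E. coli against IS621 bridge RNA target-binding loops. Recombination efficiency is based on barcode counts at recombinant junctions in counts per million, averaged and corrected for the control. Numbers are shown as log10(CPM+1), with duplicate plates on chloramphenicol/ampicillin LB agar (control) or chloramphenicol/ampicillin/kanamycin with 0.1 mM IPTG.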
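Note: IS621 recombinase and bridge RNA in Escherichia coli cells.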

| Sequence | recombinant barcode read abundance (log10) |
| --- | --- |
| CATGCTCCTTGGGTTCTAACCTGTTGCCT (site CATGCTCCTAG) | 0.353 |
| CATGCTCCTTGGGTTCTAACCTGTTGCCT (site CATGCTCCTAT) | 0.512 |
| CATTAGCCTTGGGTTCTAACCTGTTGCCT (site CATAAGCCTAG) | 0.0881 |
| CATTAGCCTTGGGTTCTAACCTGTTGCCT (site CATCAGCCTAG) | 0.26 |
| CATTAGCCTTGGGTTCTAACCTGTTGCCT (site CATGAGCCTAG) | 0.0107 |
| CATTAGCCTTGGGTTCTAACCTGTTGCCT (site CATTAGCCTAG) | 0.583 |
| CATTAGTCTTGGGTTCTAACCTGTTGCCT (site CATTAGTCTAG) | 1.33 |
| CATTAGTCTTGGGTTCTAACCTGTTGCCT (site TATTAATCTAG) | 0.0986 |
| CATTATCCTTGGGTTCTAACCTGTTGCCT (site CAATATCCTAG) | 0.0661 |
| CATTATCCTTGGGTTCTAACCTGTTGCCT (site CACTATCCTAG) | 0.161 |
| CATTATCCTTGGGTTCTAACCTGTTGCCT (site CAGTATCCTAG) | 0.0928 |
| CATTATCCTTGGGTTCTAACCTGTTGCCT (site CATTATCCTAG) | 0.136 |
| CATTCAACTTGGGTTCTAACCTGTTGCCG (site CATTCAACTAG) | 0.0546 |
| CATTCAACTTGGGTTCTAACCTGTTGCCG (site CATTCAACTCG) | 0.0716 |
| CCAAGATCTTGGGTTCTAACCTGTTGCCT (site CAAAGATCTAG) | 0.178 |
| CCAAGATCTTGGGTTCTAACCTGTTGCCT (site CCAAGATCTAG) | 0.556 |
| CCAAGATCTTGGGTTCTAACCTGTTGCCT (site CGAAGATCTAG) | 0.201 |
| CCAAGATCTTGGGTTCTAACCTGTTGCCT (site CTAAGATCTAG) | 0.46 |
| CCAAGCGCTTGGGTTCTAACCTGTTGCCT (site CCAAGCACTAG) | 0.589 |
| CCAAGCGCTTGGGTTCTAACCTGTTGCCT (site CCAAGCCCTAG) | 0.0283 |
| CCAAGCGCTTGGGTTCTAACCTGTTGCCT (site CCAAGCGCTAG) | 0.769 |
| CCAAGCGCTTGGGTTCTAACCTGTTGCCT (site CCAAGCTCTAG) | 0.209 |

| Sequence | recombinant barcode read abundance (log10) |
| --- | --- |
| CCAAGGGCTTGGGTTCTAACCTGTTGCAG (site CCAAGGGCTCA) | 1.09 |
| CCAAGGGCTTGGGTTCTAACCTGTTGCAG (site CCAAGGGCTCC) | 0.546 |
| CCAAGGGCTTGGGTTCTAACCTGTTGCAG (site CCAAGGGCTCG) | 0.537 |
| CCAAGGGCTTGGGTTCTAACCTGTTGCAG (site CCAAGGGCTCT) | 2.13 |
| CCAAGGGCTTGGGTTCTAACCTGTTGCCG (site CCAAGGGCTCA) | 0.0491 |
| CCAAGGGCTTGGGTTCTAACCTGTTGCCG (site CCAAGGGCTCC) | 0.211 |
| CCAAGGGCTTGGGTTCTAACCTGTTGCCG (site CCAAGGGCTCG) | 0.143 |
| CCAAGGGCTTGGGTTCTAACCTGTTGCCG (site CCAAGGGCTCT) | 0.33 |
| CCAAGTCCTTGGGTTCTAACCTGTTGCCA (site CCAAGTCCTTG) | 0.0554 |
| CCAAGTCCTTGGGTTCTAACCTGTTGCCA (site GTTCAGACTAA) | 0.031 |
| CCAATTGCTTGGGTTCTAACCTGTTGCCT (site CCAATTGCTAG) | 0.108 |
| CCAATTGCTTGGGTTCTAACCTGTTGCCT (site CTAATTGCTAG) | 0.0541 |
| CCACTCCCTTGGGTTCTAACCTGTTGCCT (site CCACTACCTAG) | 0.166 |
| CCACTCCCTTGGGTTCTAACCTGTTGCCT (site CCACTCCCTAG) | 0.0427 |
| CCACTCCCTTGGGTTCTAACCTGTTGCCT (site CCACTGCCTAG) | 0.0666 |
| CCACTCCCTTGGGTTCTAACCTGTTGCCT (site CCACTTCCTAG) | 0.279 |
| CCACTTCCTTGGGTTCTAACCTGTTGCCT (site CCACTACCTAG) | 0.233 |
| CCACTTCCTTGGGTTCTAACCTGTTGCCT (site CCACTCCCTAG) | 0.176 |
| CCACTTCCTTGGGTTCTAACCTGTTGCCT (site CCACTGCCTAG) | 0.0522 |
| CCACTTCCTTGGGTTCTAACCTGTTGCCT (site CCACTTCCTAG) | 0.0928 |
| CCAGAAGCTTGGGTTCTAACCTGTTGCGT (site CCAGAAGCTAC) | 0.279 |
| CCAGAAGCTTGGGTTCTAACCTGTTGCGT (site CCAGTAGCTCC) | 0.434 |

| Sequence | recombinant barcode read abundance (log10) |
| --- | --- |
| CCAGCTGCTTGGGTTCTAACCTGTTGCCT (site CCAGCTGCTAG) | 1.11 |
| CCAGCTGCTTGGGTTCTAACCTGTTGCCT (site GTGCGCTCTGC) | 0.137 |
| CCAGGAGCTTGGGTTCTAACCTGTTGCAG (site CCAGGAGCTCT) | 0.312 |
| CCAGGAGCTTGGGTTCTAACCTGTTGCAG (site TCTGGAGCTCT) | 0.141 |
| CCAGGGACTTGGGTTCTAACCTGTTGCCT (site CCAAGGACTAG) | 0.683 |
| CCAGGGACTTGGGTTCTAACCTGTTGCCT (site CCACGGACTAG) | 0.294 |
| CCAGGGACTTGGGTTCTAACCTGTTGCCT (site CCAGGGACTAG) | 1.31 |
| CCAGGGACTTGGGTTCTAACCTGTTGCCT (site CCATGGACTAG) | 0.0751 |
| CCAGTTACTTGGGTTCTAACCTGTTGCCT (site CCAGTAACTAG) | 0.104 |
| CCAGTTACTTGGGTTCTAACCTGTTGCCT (site CCAGTCACTAG) | 0.132 |
| CCAGTTACTTGGGTTCTAACCTGTTGCCT (site CCAGTGACTAG) | 0.195 |
| CCAGTTACTTGGGTTCTAACCTGTTGCCT (site CCAGTTACTAG) | 0.351 |
| CCATACCCTTGGGTTCTAACCTGTTGCTA (site ATCATAGCTGC) | 0.019 |
| CCATACCCTTGGGTTCTAACCTGTTGCTA (site CCATACCCTTA) | 0.884 |
| CCATAGTCTTGGGTTCTAACCTGTTGCTT (site CCATAGTCTAA) | 0.732 |
| CCATAGTCTTGGGTTCTAACCTGTTGCTT (site GCACAGTCTAA) | 0.052 |
| CCATCCTCTTGGGTTCTAACCTGTTGCTT (site CAATCCTCTAA) | 0.04 |
| CCATCCTCTTGGGTTCTAACCTGTTGCTT (site CCATCCTCTAA) | 0.0749 |
| CCATGGTCTTGGGTTCTAACCTGTTGCTT (site CCATACTCTAA) | 0.01 |
| CCATGGTCTTGGGTTCTAACCTGTTGCTT (site CCATGGTCTAA) | 1.78 |
| CCGAATCCTTGGGTTCTAACCTGTTGCCT (site CCGAATCCTAG) | 0.355 |
| CCGAATCCTTGGGTTCTAACCTGTTGCCT (site CCGACTCCTAG) | 0.361 |

| Sequence | recombinant barcode read abundance (log10) |
| --- | --- |
| CCGAATCCTTGGGTTCTAACCTGTTGCCT (site CCGAGTCCTAG) | 0.122 |
| CCGAATCCTTGGGTTCTAACCTGTTGCCT (site CCGATTCCTAG) | 0.199 |
| CCGACTTCTTGGGTTCTAACCTGTTGCCT (site CAGACTTCTAG) | 0.219 |
| CCGACTTCTTGGGTTCTAACCTGTTGCCT (site CCGACTTCTAG) | 0.164 |
| CCGACTTCTTGGGTTCTAACCTGTTGCCT (site CGGACTTCTAG) | 0.244 |
| CCGACTTCTTGGGTTCTAACCTGTTGCCT (site CTGACTTCTAG) | 0.129 |
| CCGAGAGCTTGGGTTCTAACCTGTTGCCT (site CAGAGAGCTAG) | 0.0908 |
| CCGAGAGCTTGGGTTCTAACCTGTTGCCT (site CCGAGAGCTAG) | 0.454 |
| CCGAGAGCTTGGGTTCTAACCTGTTGCCT (site CGGAGAGCTAG) | 0.0785 |
| CCGAGAGCTTGGGTTCTAACCTGTTGCCT (site CTGAGAGCTAG) | 0.0419 |
| CCGCATGCTTGGGTTCTAACCTGTTGCCT (site CCGAATGCTAG) | 0.0372 |
| CCGCATGCTTGGGTTCTAACCTGTTGCCT (site CCGCATGCTAG) | 0.234 |
| CCGCATGCTTGGGTTCTAACCTGTTGCCT (site CCGGATGCTAG) | 0.0172 |
| CCGCATGCTTGGGTTCTAACCTGTTGCCT (site CCGTATGCTAG) | 0.0765 |
| CCGCCTCCTTGGGTTCTAACCTGTTGCAT (site CCGCCTCCTAT) | 0.0412 |
| CCGCCTCCTTGGGTTCTAACCTGTTGCAT (site CGTCCTCCTAT) | 0.26 |
| CCGCGGACTTGGGTTCTAACCTGTTGCTA (site CCGCGGACTTA) | 0.989 |
| CCGCGGACTTGGGTTCTAACCTGTTGCTA (site TAAAACCCTAT) | 0.0107 |
| CCGCGGACTTGGGTTCTAACCTGTTGCTT (site CCGCAGACTAA) | 0.106 |
| CCGCGGACTTGGGTTCTAACCTGTTGCTT (site CCGCGGACTAA) | 0.578 |
